Experimental findings from patent US20220117266A1, “NICKEL CHELATION THERAPY” (priority 2019, published 2022) are described below.

Structures are written as SMILES.

For one test, the target named is Aβ40 peptide (Homo sapiens, UniProt P05067). Kind of test: Isothermal titration calorimetry. Conditions: 1 mM DMG injected instead of nickel; data not shown. Also on record: purchased rPeptides, Watkinsville, Ga., USA kit #A-1180-1; host or cells: E. coli. It counts as binding. The text has this: Nickel binding to human recombinant Aβ40 peptide is confirmed by isothermal titration calorimetry. Isothermal titration calorimetry (ITC) has been already used to analyze copper or zinc binding to various Aβ peptides, including Ab40 (Talmard et al. Biochemistry 46, 13658-13666 (2007); Sacco et al. JBIC Journal of Biological Inorganic Chemistry 17, 531-541 (2012); Hatcher et al. The journal of physical chemistry B 112, 8160-8164 (2008)). In the current study, we used ITC to determine whether nickel can bind the Aβ40 peptide. The peptide (same used in ThT-based aggregation assays) was present in the sample cell at a concentration of 20 μM. Twenty injections of NiSO4 (1 mM solution, 5 μM increments in sample cell) were performed every 5 min under constant stirring (350 rpm) at 25° C., and the heat release was measured (FIG. 9). The heat release profile indicates Ni binding to the peptide (FIG. 9, top Panel).
Isothermal Titration Calorimetry. […] Briefly, 1 mg of lyophilized Aβ40 peptide (#A-1157-2, rPeptides) was resuspended with 1% NH4OH to a concentration of 250 μM, sonicated for 15-20 sec, before being diluted to a final concentration of 20 μM Aβ40 using ddH2O and TBS 10×, pH 7.4 (working buffer: NH4OH 0.2%, TBS 1×, pH 7.4 (“NTBS”)). […] All samples were degassed for 15 min at 25° C. before use. Titration was initiated using a program for 20 injections (2.38 μL each, every 5 min) with continuous stirring (350 rpm) at constant temperature (25° C.). ITC data were analyzed using NanoAnalyze 1.2 software (TA Instruments). Data obtained with the control experiment (Aβ40 peptide in sample cell, buffer in syringe) were subtracted from each experiment to account for any injection-related heat change.
(Isothermal titration calorimetry measures the heat released or taken up as one component is titrated into another.)

Test [1] has as its system H2-uptake hydrogenase activity in S. Typhimurium 14028. Put plainly: Amperometric hydrogenase assay on whole cells grown with DMG. It counts as cell-based. The protocol:
H2-uptake hydrogenase activity is required for colonization in a murine model.
Amperometric hydrogenase assays. […] Cells were suspended in phosphate-buffered saline (PBS) to a final concentration of 8×10^8, per mL and added to a sealed amperometric dual-electrode chamber, with constant stirring; 100 μL of H2-saturated phosphate-buffered saline was added to the chamber and the disappearance of H2 was recorded over time. Hydrogenase activity is expressed in nmoles of H2 oxidized per minute per 10^8 cells.

Sequence of Aβ40 peptide (P05067 672-711): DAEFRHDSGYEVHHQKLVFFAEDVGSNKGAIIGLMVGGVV

On to `CC(=NO)C(C)=NO` [DMG, dimethylglyoxime], for which, on Aβ40 peptide, the “binding to Aβ40 peptide (ITC)” value is given as “cannot bind to the peptide”. Moreover, the “increase in hydrogenase activity compared to the 1 mM DMG medium” value in test [1] (1 mM DMG + 50 μM NiCl2) worked out at 50%. For the same compound, the Hydrogenase activity is recorded as 14.0 ± 2.7 nmoles H2 oxidized per minute per 10^9 cells in test [1] (DMG 0.1 mM in blood-based medium, six hours, H2-enriched microaerobic, DMG D1885 (anhydrous)); 4.6 ± 1.2 nmoles H2 oxidized per minute per 10^9 cells in test [1] (DMG 0.5 mM); 3.9 ± 0.9 nmoles H2 oxidized per minute per 10^9 cells in test [1] (DMG 1 mM); 6.9 ± 1.7 nmoles H2 oxidized per minute per 10^9 cells in test [1] (DMG 1 mM + NiCl2 0.05 mM); 0.8 ± 0.1 nmoles H2 oxidized per minute per 10^9 cells in test [1] (DMG 5 mM).
